Measurements as given in patent US10183006B2, “Methods of therapeutic monitoring of nitrogen scavenging drugs” (Horizon Therapeutics, LLC, priority 2011, dated 2019).

How the values were obtained:
[1] = Short term switch over comparison of NaPBA and HPN-100 in controlling ammonia, 24-hr serial sampling, pediatric UCD patients; format: in vivo, human; conditions: end of treatment with HPN-100; 11 pediatric UCD patients ages 6-17
Excerpt: (§1) The relationship between reducing ammonia burden by maintaining fasting ammonia at or close to half ULN and neuropsychological outcomes in pediatric UCD patients was explored in clinical trials. […] These patients underwent 24-hr serial sample collection in a confined setting where the last sample at 24 hr was considered fasting and under supervision of the study personnel. At the end of treatment with HPN-100 the average fasting ammonia at 24-hr time point was 15.5 μmol/L or less than half ULN, indicating good clinical control. These 11 patients along with another 15 pediatric patients were enrolled in two long term studies and received HPN-100 for 12 months, during which monthly fasting ammonia were collected. At the time of enrollment and at the end of the study, all patients underwent assessment for neuropsychological outcomes including the following: BRIEF (Behavior Rating Inventory of Executive Function) to assess day-to-day executive functioning, CBCL (Child Behavior Checklist) to evaluate internalizing (e.g., mood/anxiety) and externalizing behaviors, and WASI (Wechsler Abbreviated Scale of Intelligence) to estimate of intellectual ability.

[2] = Neuropsychological outcomes (BRIEF, CBCL, WASI) after 12 months HPN-100 in pediatric UCD patients; format: in vivo, human
Excerpt: as §1
In pediatric patients, WASI and CBCL scores were stable in comparison to baseline. The majority of the BRIEF subscales at baseline were at or close to 65, consistent with borderline and/or clinically significant dysfunction. Among 22 pediatric subjects who completed the neuropsychological testing at 12 months, all BRIEF domains were improved (lower T scores) with means (SD) at end of study compared to baseline for Behavioral Regulation Index 53.7 (9.79) vs. 60.4 (14.03) (p<0.05); Metacognition Index 57.5 (9.84) vs. 67.5 (13.72) (p<0.001), and Global Executive Scale 56.5 (9.71) vs. 66.2 (14.02) (p<0.001).

[3] = Population PK model (NONMEM) and Monte Carlo dosing simulations in UCD patients; design: species or system human
Experimental: Diagnostic plots and statistical comparisons were used to select among candidate models, and covariates were assessed by graphical analyses and covariate modeling.

[4] = Two long term studies, HPN-100 for 12 months in pediatric UCD patients: monthly fasting ammonia and hyperammonemia episodes; format: in vivo, human
Excerpt: as §1, with “ability. […]” for “ability.”

[5] = Relationship between PAA levels and neurological AEs in UCD patients (switchover and 12-month protocols); format: in vivo, human; conditions: short term switchover
[6] = Illustrative UCD patient cases (Patients A, B, C): blood ammonia under nitrogen scavenging drug
Excerpt: In certain embodiments of the methods disclosed herein, blood samples used for measuring fasting blood ammonia levels and/or ULN blood ammonias are venous blood samples. In certain embodiments, a blood sample is a plasma blood sample. Any methods known in the art may be used to obtain a plasma blood sample. For example, blood from a subject may be drawn into a tube containing heparin or ethylenediaminetetraacetic acid (EDTA). In certain embodiments, the sample can be placed on ice and centrifuged to obtain plasma within 15 minutes of collection, stored at 2-8° C. […] In other embodiments, the blood plasma sample is snap frozen, stored at ≤−18° C. […] In certain embodiments, blood samples are taken in a laboratory or hospital setting. In certain embodiments, a single fasting blood sample is used to measure fasting blood ammonia level. However, in other embodiments, multiple fasting blood samples may be obtained. In certain embodiments, a subject's blood ammonia level may be monitored throughout the day. Further, in certain embodiments, the methods disclosed herein comprise an additional step of obtaining one or more blood samples from a subject prior to or after measuring fasting blood ammonia level.
Measurement of ammonia levels in a fasting blood sample is carried out using techniques known in the art. For example, ammonia levels may be measured using a colorimetric reaction or an enzymatic reaction. In certain embodiments, a colorimetric reaction may involve the use of bromophenol blue as an ammonia indicator. In these embodiments, ammonia may react with bromophenol blue to yield a blue dye. In certain embodiments, an enzymatic reaction may involve glutamate dehydrogenase catalyzing the reductive amination of 2-oxoglutarate with NH^4+ and NADPH to form glutamate and NADP^+. The formation of NADP^+ formed is directly proportional to the amount of ammonia present in the blood sample. Therefore, the concentration of ammonia is measured based on a decrease in absorbance.
Initial dosage is determined based on body surface area or as otherwise instructed according to HPN-100 drug labeling.

[7] = HPN-100 in subjects with hepatic impairment with cirrhosis and healthy adults (Study UP 1204-002): urinary excretion; format: in vivo, human; conditions: for PAGN Proportion excreted post-24 hours (%), of total PAGN eliminated over 48 hours: after dosing on day 1
Experimental: (§2) To determine its pharmacokinetic (PK) and pharmacodynamic (PD) profile in patients with liver disease, clinical testing was conducted in which HPN-100 was administered orally as a single dose (100 mg/kg/day on day 1), and twice daily for 7 consecutive days (200 mg/kg/day on days 8 through 14, in two doses of 100 mg/kg per dose), to subjects with hepatic impairment with cirrhosis (Child-Pugh scores of A, B, or C) and to a gender and age-matched control group of healthy adults with normal hepatic function. On day 15, subjects received a single dose of HPN-100 (100 mg/kg). PK blood samples were taken pre-dose, at 15 and 30 minutes post-dose, and at 1, 1.5, 2, 3, 4, 6, 8, 12, and 24 hours post-dose on days 1, 8, and 15, and at 48 hours after dosing on days 1 and 15. On days 9-14, blood samples were taken pre-morning dose and at 2 hours post-morning dose. Urine was collected 0-4, 4-8, 8-12, and 12-24 hours post-dose on days 1, 8, and 15, and at 24-48 hours post-dose on days 1 and 15.

[8] = HPN-100 in subjects with hepatic impairment with cirrhosis and healthy adults: plasma metabolites; format: in vivo, human; conditions: all plasma samples, all subject groups
Experimental: as §2

[9] = Patient A, 3 mL dose with each meal
[10] = after dosing on day 1 (0-48 hours), Child-Pugh A
[11] = after dosing on day 1 (0-48 hours), Child-Pugh B
[12] = after dosing on day 1 (0-48 hours), Child-Pugh C
[13] = after dosing on day 1 (0-48 hours), Healthy Volunteers

O=C(CCCc1ccccc1)OCC(COC(=O)CCCc1ccccc1)OC(=O)CCCc1ccccc1 [HPN-100, glyceryl tri-[4-phenylbutyrate]]
average fasting ammonia at 24-hr time point [1]: 15.5 µmol/L
BRIEF Behavioral Regulation Index, T score mean (SD) at end of study ([2]; 22 pediatric subjects, baseline 60.4 (14.03), p<0.05): 53.7 (9.79)
BRIEF Global Executive Scale, T score mean (SD) at end of study ([2]; 22 pediatric subjects, baseline 66.2 (14.02), p<0.001): 56.5 (9.71)
BRIEF Metacognition Index, T score mean (SD) at end of study ([2]; 22 pediatric subjects, baseline 67.5 (13.72), p<0.001): 57.5 (9.84)
WASI and CBCL scores in comparison to baseline ([2]; pediatric patients): stable
fractional presystemic metabolism of PBA ([3]; adults): 43%
slower PBA absorption when delivered as GPB vs. NaPBA ([3]; final popPK model): ~60%
fractional presystemic metabolism of PBA ([3]; pediatric patients): 14%
episodes of acute hyperammonemia ([4]; during 12 month treatment, pediatric UCD patients, 9 in the 12 months before enrollment): 5
peak ammonia, mean ([4]; during the 12 month study, 233 μmol/L before enrollment): 166 µmol/L
relationship between neurological AEs and PAA levels [5]: No statistically significant relationship
fasting blood ammonia level ([6]; Patient A, adult UCD, 9 mL/day for at least 7 days, 52 μmol/L before treatment): 33 µmol/L
average daily ammonia [6, 9]: 66 µmol/L
maximum ammonia after dinner [6, 9]: 95 µmol/L
fasting ammonia level ([6]; Patient A, 12 mL total or 4 mL TID for at least 7 days): 15 µmol/L
fasting blood ammonia level ([6]; Patient B, 3.5 mL 3 times a day for at least 7 days): 17 µmol/L
urinary PAGN Amount Excreted ([7]; after dosing on day 1 (0-24 hours), Child-Pugh A (n = 8)): 15553 µmol
urinary PAGN Amount Excreted ([7]; after dosing on day 1 (0-24 hours), Child-Pugh B (n = 8)): 16847 µmol
urinary PAGN Amount Excreted ([7]; after dosing on day 1 (0-24 hours), Child-Pugh C (n = 8)): 19291 µmol
urinary PAGN Amount Excreted ([7]; after dosing on day 1 (0-24 hours), Healthy Volunteers (n = 8)): 14903 µmol
PAGN Mole % of dose excreted [7, 10]: 47.1 Mole %
urinary PAGN Amount Excreted [7, 10]: 18386 µmol
PAGN Mole % of dose excreted [7, 11]: 44.9 Mole %
urinary PAGN Amount Excreted [7, 11]: 19902 µmol
PAGN Mole % of dose excreted [7, 12]: 48.5 Mole %
urinary PAGN Amount Excreted [7, 12]: 20854 µmol
PAGN Mole % of dose excreted [7, 13]: 42.2 Mole %
urinary PAGN Amount Excreted [7, 13]: 17869 µmol
PAGN Proportion excreted post-24 hours (%), of total PAGN eliminated over 48 hours ([7]; Child-Pugh A): 15.5%
PAGN Proportion excreted post-24 hours (%), of total PAGN eliminated over 48 hours ([7]; Child-Pugh B): 14.5%
PAGN Proportion excreted post-24 hours (%), of total PAGN eliminated over 48 hours ([7]; Child-Pugh C): 8.8%
PAGN Proportion excreted post-24 hours (%), of total PAGN eliminated over 48 hours ([7]; Healthy Volunteers): 16.9%
urinary PAGN Amount Excreted ([7]; after dosing on day 8 (0-12 hours), after first 100 mg/kg morning dose, Child-Pugh A): 16068 µmol
urinary PAGN Amount Excreted ([7]; after dosing on day 8 (0-12 hours), after first 100 mg/kg morning dose, Child-Pugh B): 13179 µmol
urinary PAGN Amount Excreted ([7]; after dosing on day 8 (0-12 hours), after first 100 mg/kg morning dose, Child-Pugh C): 15428 µmol
urinary PAGN Amount Excreted ([7]; after dosing on day 8 (0-12 hours), after first 100 mg/kg morning dose, Healthy Volunteers): 10195 µmol
PAGN Mole % of dose excreted ([7]; after dosing on day 8 (0-12 hours), Child-Pugh A): 40.6 Mole %
PAGN Mole % of dose excreted ([7]; after dosing on day 8 (0-12 hours), Child-Pugh B): 29.9 Mole %
PAGN Mole % of dose excreted ([7]; after dosing on day 8 (0-12 hours), Child-Pugh C): 44.6 Mole %
PAGN Mole % of dose excreted ([7]; after dosing on day 8 (0-12 hours), Healthy Volunteers): 24.5 Mole %
PAGN Mole % of dose excreted ([7]; after dosing on day 15 (0-48 hours), % of the single morning dose of day 15, Child-Pugh A): 79.6 Mole %
PAGN Mole % of dose excreted ([7]; after dosing on day 15 (0-48 hours), % of the single morning dose of day 15, Child-Pugh B): 58.2 Mole %
PAGN Mole % of dose excreted ([7]; after dosing on day 15 (0-48 hours), % of the single morning dose of day 15, Child-Pugh C): 85.0 Mole %
PAGN Mole % of dose excreted ([7]; after dosing on day 15 (0-48 hours), % of the single morning dose of day 15, Healthy Volunteers): 68.6 Mole %
urinary PAGN Amount Excreted ([7]; after dosing on day 15 (0-48 hours), Child-Pugh A): 31431 µmol
urinary PAGN Amount Excreted ([7]; after dosing on day 15 (0-48 hours), Child-Pugh B): 25152 µmol
urinary PAGN Amount Excreted ([7]; after dosing on day 15 (0-48 hours), Child-Pugh C): 30752 µmol
urinary PAGN Amount Excreted ([7]; after dosing on day 15 (0-48 hours), Healthy Volunteers): 28716 µmol
average conversion of HPN-100 to PAGN ([7]; after single dose administration, cirrhosis and healthy volunteers): 40-50%
HPN-100 dose administered excreted as PAGN ([7]; day 1): 42-49%
HPN-100 dose administered excreted as PAGN ([7]; day 8): 25-45%
HPN-100 dose administered excreted as PAGN ([7]; day 15): 58-85%
effect of hepatic impairment on ammonia-scavenging ability ([7]; urinary PAGN excretion, Child-Pugh groups vs healthy volunteers): no significant effect

O=C(O)CNC(=O)Cc1ccccc1 [PAG, phenylacetyl glycine]
alternative HPN-100 metabolite level in plasma [8]: below the limit of quantification

O=C(O)CNC(=O)CCCc1ccccc1 [PBG, phenylbutyryl glycine]
alternative HPN-100 metabolite level in plasma [8]: below the limit of quantification

NC(=O)CC[C@H](NC(=O)CCCc1ccccc1)C(=O)O [PBGN, phenylbutyryl glutamine]
alternative HPN-100 metabolite level in plasma [8]: below the limit of quantification

O=C([O-])c1ccccc1.[Na+] [sodium benzoate, reference compound]
fasting blood ammonia level ([6]; Patient C, adult UCD, 15 g/day for at least 7 days, 77 μmol/L before treatment): 35 µmol/L
fasting ammonia level ([6]; Patient C, 18 grams per day for at least 7 days): 15 µmol/L

sodium phenylbutyrate [NaPBA, reference compound]
fractional presystemic metabolism of PBA ([3]; adults): 23%
fractional presystemic metabolism of PBA ([3]; pediatric patients): 43%
relationship between neurological AEs and PAA levels [5]: No statistically significant relationship
fasting blood ammonia level ([6]; Patient B, 11-year UCD patient, 24 pills per day, suspected noncompliant): 40 µmol/L
